Measured values reported in article PMC5883364 (Malaria Journal, 2018).
“Also recorded” adds a separate entry of the source. Where two headings read alike, the source gives them in different places.

Legend:
[1] = tested on: P. falciparum IPC4912 (artemisinin-resistant, K13 I543T); test: SYBR Green I assay, IC50, strain IPC4912; type: cell-based, Plasmodium falciparum; conditions: for IC50: Plasmodium falciparum, read-out: P. falciparum IC50 ± SD, IPC4912; for Resistance Index RIc = IC50 (IPC4912)/IC50 (3D7): IPC4912 vs 3D7
Protocol: Staging and parasitaemia were determined by light microscopy of Giemsa-stained thin blood smears. Anti-malarial activity was determined using the SYBR Green I assay, as previously described. Briefly, early ring stage parasites (> 80% of rings) were challenged with a 1:3 serial dilution of each compound, in concentrations ranging from 10,000–0.169 nM. Fluorescence intensity was measured with a multi-mode microplate reader (Triad, Dynex Technologies), with excitation and emission wavelengths of 485 and 535 nm, respectively, and analysed by nonlinear regression using GraphPad Prism to determine IC50 values.

[2] = tested on: P. falciparum IPC5202 (artemisinin-resistant, K13 R539T); test: SYBR Green I assay, IC50, strain IPC5202; type: cell-based, Plasmodium falciparum; conditions: for IC50: Plasmodium falciparum, read-out: P. falciparum IC50 ± SD, IPC5202, strain IPC5202; for Resistance Index RIb = IC50 (IPC5202)/IC50 (3D7): IPC5202 vs 3D7
Protocol: (§1) Staging and parasitaemia were determined by light microscopy of Giemsa-stained thin blood smears. Anti-malarial activity was determined using the SYBR Green I assay, as previously described.

[3] = tested on: P. falciparum Dd2 (chloroquine-resistant, mefloquine-resistant); test: SYBR Green I assay, IC50, strain Dd2; type: cell-based, Plasmodium falciparum; conditions: for Resistance Index RIa = IC50 (Dd2)/IC50 (3D7): Dd2 vs 3D7
Protocol: as §1

[4] = tested on: HepG2-A16 (human hepatoma) cells; conditions: for Selectivity index LD50 (HepG2)/IC50 (3D7): HepG2 vs 3D7; for Selectivity index LD50 (HepG2)/IC50 (Dd2): HepG2 vs Dd2; for Selectivity index LD50 (HepG2)/IC50 (IPC4912): HepG2 vs IPC4912; for Selectivity index LD50 (HepG2)/IC50 (IPC5202): HepG2 vs IPC5202; for LD50 HepG2: human, 48 h
Protocol: (§2) Cytotoxicity was assessed on the mammalian cell lines HepG2-A16 (human hepatoma) and V79 (Chinese hamster lung), using a MTT based assay, as previously described. […] V79 and HepG2 cell lines were incubated for 24 and 48 h, respectively (media changed at 24 h intervals). Absorbance was read at 570 nm on a multi-mode microplate reader (Triad, Dynex Technologies), to produce a log dose-dependence curve. The LD50 value for each compound was estimated by non-linear interpolation of the dose-dependence curve (GraphPad Software).

[5] = tested on: V79 (Chinese hamster lung) cells; conditions: for LD50 V79: Chinese hamster, 24 h; for Selectivity index LD50 (V79)/IC50 (3D7): V79 vs 3D7; for Selectivity index LD50 (V79)/IC50 (Dd2): V79 vs Dd2; for Selectivity index LD50 (V79)/IC50 (IPC4912): V79 vs IPC4912; for Selectivity index LD50 (V79)/IC50 (IPC5202): V79 vs IPC5202
Protocol: as §2

[6] = tested on: P. falciparum 3D7 (chloroquine and mefloquine sensitive); test: SYBR Green I assay, IC50, strain 3D7; type: cell-based, Plasmodium falciparum; conditions: Plasmodium falciparum, 3D7, read-out: P. falciparum IC50 ± SD, 3D7
Protocol: as §1

Plasmodium berghei NK65 = test: Peters' 4-day suppressive test in Swiss albino mice; type: in vivo; conditions: for inhibition in vivo at 50 mg/kg/day: Plasmodium berghei; for inhibition in vivo at 50 mg/kg/day / Mean parasitaemia ± SD, Day 5 / Mean parasitaemia ± SD, Day 7 / Mean parasitaemia ± SD, Day 10: mice; for inhibition in vivo at 50 mg/kg/day / Mean parasitaemia ± SD, Day 5 / Mean parasitaemia ± SD, Day 7 / Mean parasitaemia ± SD, Day 10 / in vivo outcome against P. berghei in words: 50 mg/kg/day oral for 4 days; for in vivo outcome against P. berghei in words: followed to day 10
Protocol: In vivo tests were performed following the Guidelines for Ethical Conduct in The Care and Use of Animals of the Federal University of Rio Grande do Norte—Brazil (CEUA/UFRN/46/2013). Evaluation of anti-malarial activity in vivo was carried out using the Peters’ 4-day suppressive test, with modifications, as previously described. Swiss albino mice were infected with Plasmodium berghei NK65 and randomly allocated to groups of five animals. Animals were treated with 50 mg/kg/day of each of the tested compounds (dissolved in PBS containing 1% DMSO), administrated orally, for four consecutive days. The control group was treated with a solution of PBS/1% DMSO. On days 5 (D5), 7 (D7) and 10 (D10) after parasite inoculation, tail blood smears were Giemsa-stained and examined microscopically to estimate parasitaemia. Acute toxicity testing was carried out to determine adverse effects due to compounds (including weight loss, hair appearance, skin wounds and behavioural changes), and recorded daily.

[7] = 120 h, day 5, vs control group, read-out: % inhibition of parasite growth, Day 5 (converted)
[8] = 168 h, day 7, vs control group, read-out: % inhibition of parasite growth, Day 7 (converted)
[9] = 240 h, day 10, vs control group, read-out: % inhibition of parasite growth, Day 10 (converted)

Compound	IC50 [1] [nM]	IC50 [2] [nM]	Selectivity index LD50 (HepG2)/IC50 (3D7) [4]	Selectivity index LD50 (HepG2)/IC50 (Dd2) [4]	Selectivity index LD50 (HepG2)/IC50 (IPC4912) [4]	Selectivity index LD50 (HepG2)/IC50 (IPC5202) [4]	LD50 HepG2 [4] [mM]	LD50 V79 [5] [mM]	Selectivity index LD50 (V79)/IC50 (3D7) [5]	Selectivity index LD50 (V79)/IC50 (Dd2) [5]	Selectivity index LD50 (V79)/IC50 (IPC4912) [5]	Selectivity index LD50 (V79)/IC50 (IPC5202) [5]	Resistance Index RIc = IC50 (IPC4912)/IC50 (3D7) [1]	inhibition in vivo at 50 mg/kg/day (Plasmodium berghei NK65; [7]) [%]	inhibition in vivo at 50 mg/kg/day (Plasmodium berghei NK65; [8]) [%]	inhibition in vivo at 50 mg/kg/day (Plasmodium berghei NK65; [9]) [%]	Mean parasitaemia ± SD, Day 5 (Plasmodium berghei NK65; day 5) [%]	Mean parasitaemia ± SD, Day 7 (Plasmodium berghei NK65; day 7) [%]	Mean parasitaemia ± SD, Day 10 (Plasmodium berghei NK65) [%]	Resistance Index RIb = IC50 (IPC5202)/IC50 (3D7) [2]	other results
CC(C)(C)OC(=O)NCCCCNC1CCC2(CC1)OOC1(O2)C2CC3CC(C2)CC1C3 (stereo not shown) [MIS14]	390 ± 17.8	413 ± 20.2	8439.9	7399.1	847.2	798.8	0.3	> 1	25575.4	22421.5	2567.4	2420.7	–	–	–	–	–	–	–	–	Resistance Index RIa = IC50 (Dd2)/IC50 (3D7) [3]: 1.1; decrease in HepG2 survival ([4]; maximum dose of 1 mM): ~30%
CCN(CC)CCCC(C)Nc1ccnc2cc(Cl)ccc12 (stereo not shown) [CQ, chloroquine, reference compound]	–	–	–	–	–	–	–	–	–	–	–	–	–	–	–	–	–	–	–	–	IC50 [6]: 15.8 ± 0.8 nM; IC50 ([3]; Plasmodium falciparum, DD2, read-out: P. falciparum IC50 ± SD, Dd2, strain Dd2): 340 ± 20.7 nM; IC50 ([3]; read-out: P. falciparum IC50 ± SD, Dd2, strain Dd2): 340 ± 20.7 nM
CCCCNC(=O)C1CCC2(CC1)OOC1(O2)C2CC3CC(C2)CC1C3 (stereo not shown) [LC92]	34.9 ± 7.9	37.7 ± 9.9	37453.1	44247.8	28653.3	26525.2	1.0	> 1	37453.1	44247.8	28653.3	26525.2	1.31	98.3	87	86.3	0.02 ± 0.05	0.46 ± 0.60	0.77 ± 0.26	1.41	mice presenting parasitaemia, day 5 (Plasmodium berghei NK65; groups of five mice, 50 mg/kg/day oral, day 5): 5
Cn1nnc(NCC2CCC3(CC2)OOC2(O3)C3CC4CC(C3)CC2C4)n1 (stereo not shown) [LC131]	4.8 ± 1.2	3.4 ± 2.1	344827.5	476190.5	208333.3	294117.6	1.0	> 1	344827.5	476190.5	208333.3	294117.6	1.66	100	100	100	0	0	0	1.17	in vivo outcome against P. berghei in words (Plasmodium berghei NK65): complete suppression of parasitaemia; also recorded: total suppression of parasitaemia from day 5 to day 10; also recorded: totally suppressed P. berghei parasitaemia
c1ccc(-n2nnnc2OCC2CCC3(CC2)OOC2(O3)C3CC4CC(C3)CC2C4)cc1 (stereo not shown) [LC132]	19.7 ± 3.4	25 ± 7.4	41322.3	37596.9	–	40000.0	1.0	> 1	41322.3	37596.9	50761.4	40000.0	0.81	100	100	94.5	0	0	0.31 ± 0.10	1.03	in vivo outcome against P. berghei in words (Plasmodium berghei NK65): recrudescence also occurred on day 10; also recorded: allowed recrudescence on day 10; Resistance Index RIa = IC50 (Dd2)/IC50 (3D7) [3]: 1.1; times less active than LC131 or LC136 ([3]; in vitro, strain not stated): up to 12
C1C2CC3CC1CC(C2)C31OOC2(CCC(Nc3nnn[nH]3)CC2)O1 (stereo not shown) [LC136]	6.8 ± 2.3	6.1 ± 1.9	357142.8	400000.0	147058.8	163934.4	1.0	> 1	357142.8	400000.0	147058.8	163934.4	2.43	100	100	100	0	0	0	2.18	in vivo outcome against P. berghei in words (Plasmodium berghei NK65): complete suppression of parasitaemia; also recorded: total suppression of parasitaemia from day 5 to day 10; also recorded: totally suppressed P. berghei parasitaemia
O=S1(=O)N=C(OCC2CCC3(CC2)OOC2(O3)C3CC4CC(C3)CC2C4)c2ccccc21 (stereo not shown) [LC129]	29.3 ± 0.7	36.4 ± 0.6	23310.0	23148.1	29673.5	27502.7	1.0	> 1	23310.0	23148.1	29673.5	27502.7	0.79	87.6	50.7	76.7	0.19 ± 0.12	1.76 ± 1.36	1.32 ± 1.24	0.85	in vivo outcome against P. berghei in words (Plasmodium berghei NK65): failed to completely suppress it
O=S1(=O)N=C(NCC2CCC3(CC2)OOC2(O3)C3CC4CC(C3)CC2C4)c2ccccc21 (stereo not shown) [LC130]	2.4 ± 1.6	8.2 ± 1.9	42918.4	40322.6	416666.6	121951.2	1.0	> 1	42918.4	40322.6	416666.6	121951.2	0.10	100	60.8	76.7	0	1.4 ± 0.94	1.32 ± 0.24	0.35	in vivo outcome against P. berghei in words (Plasmodium berghei NK65): recrudescence occurred on day 7; mice parasitemic, day 7 (Plasmodium berghei NK65; groups of five mice, 50 mg/kg/day oral, day 7): 2/5
Cn1nnc(N)n1 [LC126II, 2-methyl-2H-tetrazole-5-amine]	–	–	–	–	–	–	–	–	–	–	–	–	–	–	–	–	–	–	–	–	IC50 [6]: > 10000 nM; IC50 ([3]; Plasmodium falciparum, DD2, read-out: P. falciparum IC50 ± SD, Dd2): > 10000 nM; antiplasmodial activity of building blocks in words ([3]; tested separately, Dd2 and 3D7 (Additional file 1)): devoid of antiplasmodial activity
